Reference: US20250179050A1, “POLYMORPH AS THYROID HORMONE RECEPTOR AGONISTS AND USE THEREOF” (XIZANG HAISCO PHARMACEUTICAL CO., LTD., priority 2022, published 2025)
Each block holds one molecule with its values, some of them ahead of it.

Test: Thermal crystal transformation test (hot stage, XRPD)
Format: physicochemical
Conditions: for Results (crystal form after thermal crystal transformation, XRPD): heating rate 10° C./min, holding time 1 min
Protocol: The present invention further provides a method for preparing the polymorph of any one of Form A to Form Z, including: • (1) suspension method: adding a crude free base of the compound of formula I (which can be prepared according to the methods described in WO 2019240938 A1) to a selected single or binary solvent until a suspension is formed and stirring same under suspension at room temperature to 50° C. for a period of time (e.g., 1 h to 3 days, or 2 h to 24 h, or 2 h to 12 h, or 3 h to 5 h), and then centrifuging and separating the suspension, followed by drying, to obtain the product; or • (2) Anti-solvent crystallization method: adding a crude free base of the compound of formula I to an appropriate amount of a good solvent until completely dissolved, taking an amount of the solution and dropwise adding same to a poor solvent or dropwise adding a poor solvent to the solution, and stirring same to precipitate a solid, followed by separation and drying to obtain the product; or • (3) cooling method: adding a crude free base of the compound of formula I to an appropriate amount of a solvent at 50-80° C. until the solid is just completely dissolved, and transferring the solution to an environment at room temperature for cooling, followed by leaving to stand or crystallization under stirring, separation and drying to obtain the product; or • (4) vapor diffusion method: dropwise adding an appropriate amount of a good solvent to an amount of a crude free base of the compound of formula I at room temperature to completely dissolve the sample or formulating same as a saturated solution of a good solvent; and separately taking an amount of the solution, and leaving the clear solution to stand in a poor solvent atmosphere at room temperature until a solid precipitates out, followed by separation, to obtain the product; or • (5) thermal crystal transformation method: placing an amount of the sample on a glass plate on a hot stage, heating same to the target temperature at a rate (e.g., 5-20° C./min, or 10-15° C./min), and maintaining the temperature for a period of time (e.g., 0.5-5 min, or 1-3 min, or 1-2 min), followed by naturally cooling down to room temperature to obtain a solid.
The different crystal forms, as raw materials, were heated to the target temperature on a hot table and held for 1 min, and cooled to room temperature to obtain solids for the XRPD test.

Results (crystal form after thermal crystal transformation, XRPD) (target temperature 235° C.): Form C
SMILES: [2H]C([2H])([2H])[C@@H]1CCc2c(Oc3c(Cl)cc(-n4nc(C#N)c(=O)[nH]c4=O)cc3Cl)n[nH]c(=O)c21 [Form N, (R)-2-(3,5-dichloro-4-((7-(methyl-d3)-1-oxo-2,5,6,7-tetrahydro-1H-cyclopenta [d]pyridazin-4-yl)oxy)phenyl)-3,5-dioxo-2,3,4,5-tetrahydro-1,2,4-triazine-6-carbonitrile]
crystal form after thermal crystal transformation (heated to 235° C. or more): Form C with a slightly less crystallinity

crystal form after thermal crystal transformation (by desolvation): Form C
Results (crystal form after thermal crystal transformation, XRPD) (target temperature 180° C.): Form C
SMILES: [2H]C([2H])([2H])[C@@H]1CCc2c(Oc3c(Cl)cc(-n4nc(C#N)c(=O)[nH]c4=O)cc3Cl)n[nH]c(=O)c21 [Form E, (R)-2-(3,5-dichloro-4-((7-(methyl-d3)-1-oxo-2,5,6,7-tetrahydro-1H-cyclopenta [d]pyridazin-4-yl)oxy)phenyl)-3,5-dioxo-2,3,4,5-tetrahydro-1,2,4-triazine-6-carbonitrile]

crystal form after thermal crystal transformation (heated to 260° C. or more): Form C
SMILES: [2H]C([2H])([2H])[C@@H]1CCc2c(Oc3c(Cl)cc(-n4nc(C#N)c(=O)[nH]c4=O)cc3Cl)n[nH]c(=O)c21 [Form K, (R)-2-(3,5-dichloro-4-((7-(methyl-d3)-1-oxo-2,5,6,7-tetrahydro-1H-cyclopenta [d]pyridazin-4-yl)oxy)phenyl)-3,5-dioxo-2,3,4,5-tetrahydro-1,2,4-triazine-6-carbonitrile]

crystal form after thermal crystal transformation (heated to 150° C.): Form V
SMILES: [2H]C([2H])([2H])[C@@H]1CCc2c(Oc3c(Cl)cc(-n4nc(C#N)c(=O)[nH]c4=O)cc3Cl)n[nH]c(=O)c21 [Form V, (R)-2-(3,5-dichloro-4-((7-(methyl-d3)-1-oxo-2,5,6,7-tetrahydro-1H-cyclopenta [d]pyridazin-4-yl)oxy)phenyl)-3,5-dioxo-2,3,4,5-tetrahydro-1,2,4-triazine-6-carbonitrile]

The remaining lines, values behind:

SMILES: [2H]C([2H])([2H])[C@@H]1CCc2c(Oc3c(Cl)cc(-n4nc(C#N)c(=O)[nH]c4=O)cc3Cl)n[nH]c(=O)c21 [Form L, (R)-2-(3,5-dichloro-4-((7-(methyl-d3)-1-oxo-2,5,6,7-tetrahydro-1H-cyclopenta [d]pyridazin-4-yl)oxy)phenyl)-3,5-dioxo-2,3,4,5-tetrahydro-1,2,4-triazine-6-carbonitrile]
crystal form after thermal crystal transformation (heated to 100° C.): Form A
crystal form after thermal crystal transformation (heated to 190° C.): Form C
Results (crystal form after thermal crystal transformation, XRPD) (target temperature 100° C.): Form A
Results (crystal form after thermal crystal transformation, XRPD) (target temperature 190° C.): Form C

SMILES: [2H]C([2H])([2H])[C@@H]1CCc2c(Oc3c(Cl)cc(-n4nc(C#N)c(=O)[nH]c4=O)cc3Cl)n[nH]c(=O)c21 [Form J, (R)-2-(3,5-dichloro-4-((7-(methyl-d3)-1-oxo-2,5,6,7-tetrahydro-1H-cyclopenta [d]pyridazin-4-yl)oxy)phenyl)-3,5-dioxo-2,3,4,5-tetrahydro-1,2,4-triazine-6-carbonitrile]
Results (crystal form after thermal crystal transformation, XRPD) (target temperature 160° C.): Form C

SMILES: [2H]C([2H])([2H])[C@@H]1CCc2c(Oc3c(Cl)cc(-n4nc(C#N)c(=O)[nH]c4=O)cc3Cl)n[nH]c(=O)c21 [Form F, (R)-2-(3,5-dichloro-4-((7-(methyl-d3)-1-oxo-2,5,6,7-tetrahydro-1H-cyclopenta [d]pyridazin-4-yl)oxy)phenyl)-3,5-dioxo-2,3,4,5-tetrahydro-1,2,4-triazine-6-carbonitrile]
crystal form after thermal crystal transformation (heated to 230° C. or more): Form C
Results (crystal form after thermal crystal transformation, XRPD) (target temperature 230° C.): Form C

SMILES: [2H]C([2H])([2H])[C@@H]1CCc2c(Oc3c(Cl)cc(-n4nc(C#N)c(=O)[nH]c4=O)cc3Cl)n[nH]c(=O)c21 [Form A, (R)-2-(3,5-dichloro-4-((7-(methyl-d3)-1-oxo-2,5,6,7-tetrahydro-1H-cyclopenta [d]pyridazin-4-yl)oxy)phenyl)-3,5-dioxo-2,3,4,5-tetrahydro-1,2,4-triazine-6-carbonitrile]
crystal form after thermal crystal transformation (heated to 150° C.): Form A
crystal form after thermal crystal transformation (heated to 300° C.): Form C
Results (crystal form after thermal crystal transformation, XRPD) (target temperature 150° C.): Form A
Results (crystal form after thermal crystal transformation, XRPD) (target temperature 300° C.): Form C

SMILES: [2H]C([2H])([2H])[C@@H]1CCc2c(Oc3c(Cl)cc(-n4nc(C#N)c(=O)[nH]c4=O)cc3Cl)n[nH]c(=O)c21 [Form R, (R)-2-(3,5-dichloro-4-((7-(methyl-d3)-1-oxo-2,5,6,7-tetrahydro-1H-cyclopenta [d]pyridazin-4-yl)oxy)phenyl)-3,5-dioxo-2,3,4,5-tetrahydro-1,2,4-triazine-6-carbonitrile]
Results (crystal form after thermal crystal transformation, XRPD) (target temperature 200° C.): Form C

SMILES: [2H]C([2H])([2H])[C@@H]1CCc2c(Oc3c(Cl)cc(-n4nc(C#N)c(=O)[nH]c4=O)cc3Cl)n[nH]c(=O)c21 [Form M, (R)-2-(3,5-dichloro-4-((7-(methyl-d3)-1-oxo-2,5,6,7-tetrahydro-1H-cyclopenta [d]pyridazin-4-yl)oxy)phenyl)-3,5-dioxo-2,3,4,5-tetrahydro-1,2,4-triazine-6-carbonitrile]
Results (crystal form after thermal crystal transformation, XRPD) (target temperature 260° C.): Form C
